One assay has as its target human STING (Homo sapiens, UniProt Q86WV6). The assay can be described thus: Fluorescence Thermal Shift assay (hSTING FTS binding assay). The following applies: STING 0.1 mg/ml, 20 min preincubation, SyproOrange. On the procedure: Compounds of the present invention were tested for binding to human STING in Fluorescence Thermal Shift assay. STING was preincubated with the compounds for 20 minutes in 50 mM Hepes, 150 mM NaCl, pH 7.5 in 16 μl volume, following by adding 4 μl of SyproOrange dye dilution (ThermoFisher, cat no. S-6651). Final STING concentration was 0.1 mg/ml. Thermal unfolding was performed in Real-Time PCR QuantStudio 6 Flex System (Applied Biosystems), from 25 to 99° C., with continuous ramp mode and ramp rate 0.033° C./s. The data were analyzed using Protein Thermal Shift Software (ThermoFisher).

For assay [1], the system named is interferon regulatory factor (IRF) pathway in THP-1 dual cells. The assay can be described thus: THP-1 Dual reporter assay, IRF pathway (luciferase). The class given is cell-based. The following applies: Homo sapiens, THP1-Dual; 18 h stimulation, luminescence. The method, then: (§1) Compounds of the present invention were tested for their activity using THP-1 dual cells (Invivogen, cat no. thpd-nfis) allowing for simultaneous study of NF-κB pathway and the interferon regulatory factor (IRF) pathway. THP-1 dual cells contain luciferase reporter gene under the control of an ISG54 (interferon-stimulated gene) minimal promoter in conjunction with five interferon-stimulated response elements and a secreted embryonic alkaline phosphatase reporter gene under the control an IFN (interferon)-β minimal promoter fused to five copies of the NF-κB consensus transcriptional response element with three copies of the c-Rel binding site. Following 18 h of stimulation with STING agonist, medium was collected and transferred onto fresh cell culture plate. To verify activity of the IRF pathway, luminescence activity was measured with standard laboratory plate reader immediately after addition 10 μl of the medium to 50 μl (or 40 μl) of luminescence reagent (Invivogen, cat. No. rep-qlc2). To verify activity of NF-κB pathway, 20 μl (or 10 μl) of the medium was mixed with 80 μl of a detection medium (Invivogen, cat. No. rep-qb2) and incubated for 2 hours (or 1 hour) at 37° C. in a humidified atmosphere containing 5% CO2. Next, absorbance at 630 nm (or 655 nm) was recorded using standard laboratory plate reader.
In general terms: A reporter such as luciferase makes a cellular process visible.

Assay [2] concerns NF-κB pathway in THP-1 dual cells. The assay can be described thus: THP-1 Dual reporter assay, NF-κB pathway (SEAP). In kind it is cell-based. The following applies: Homo sapiens, THP1-Dual; 18 h stimulation, absorbance; read-out: THP1 Dual EC50 (μM) NFkB. The method, then: as §1

Structures are written as SMILES.

Sequence of human STING (Q86WV6 whole entry H232R): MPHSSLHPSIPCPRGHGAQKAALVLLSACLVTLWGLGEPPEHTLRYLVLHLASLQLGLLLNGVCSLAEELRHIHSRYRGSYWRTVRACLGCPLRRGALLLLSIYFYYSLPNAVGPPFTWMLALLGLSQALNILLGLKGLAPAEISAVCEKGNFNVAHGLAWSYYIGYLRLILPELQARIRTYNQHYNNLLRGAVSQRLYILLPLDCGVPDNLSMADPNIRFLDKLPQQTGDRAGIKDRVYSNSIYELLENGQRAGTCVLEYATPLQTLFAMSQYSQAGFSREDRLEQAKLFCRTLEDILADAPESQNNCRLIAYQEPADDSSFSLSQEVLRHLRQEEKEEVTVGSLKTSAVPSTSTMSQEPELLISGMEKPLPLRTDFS

In general, EC50 refers to the concentration giving half of the maximal effect. As for `COc1cc(CN(Cc2c[nH]c3ccccc3c2=O)[C@H]2CCCN(c3cccnc3)C2)ccn1` [Example 6, 3-({[(2-methoxypyridin-4-yl)methyl][(3S)-1-(pyridin-3-yl)piperidin-3-yl]amino}methyl)-1,4-dihydroquinolin-4-one], at human STING, the “hSTING FTS binding assay (ΔT C.°)” value is reported as “++ (ΔTm>10° C.)”. Moreover, the EC50 in assay [1] and in assay [2] was not above 1 µM each time.
As to `COc1cc(CN(Cc2cn(C3CC3)c3cc(Cl)c(F)cc3c2=O)[C@H]2CCCN(c3cccnc3)C2)ccn1` [Example 28, 7-chloro-1-cyclopropyl-6-fluoro-3-({[(2-methoxypyridin-4-yl)methyl][(3S)-1-(pyridin-3-yl)piperidin-3-yl]amino}methyl)-1,4-dihydroquinolin-4-one], the “hSTING FTS binding assay (ΔT C.°)” value on human STING is given as “++ (ΔTm>10° C.)”. Also, the EC50 in assay [1] and in assay [2] was not above 1 µM each time.
Regarding `Cc1ccc(N2CCC[C@H](N(Cc3ccnc(C)c3)Cc3cn(CC(=O)O)c4ccccc4c3=O)C2)cn1` [Example 51, 2-[3-({[(3S)-1-(6-Methylpyridin-3-yl)piperidin-3-yl][(2-methylpyridin-4-yl)methyl]amino}methyl)-4-oxo-1,4-dihydroquinolin-1-yl]acetic acid], at human STING, the “hSTING FTS binding assay (ΔT C.°)” value is recorded as “++ (ΔTm>10° C.)”. Moreover, the EC50 in assay [1] and in assay [2] was not below 10 µM in each case.
`Cc1ccc(N2CCC[C@H](N(Cc3ccnc(C)c3)Cc3cn(C)c4cc(Br)ccc4c3=O)C2)cn1` [Example 37, 7-bromo-1-methyl-3-({[(3S)-1-(6-methylpyridin-3-yl)piperidin-3-yl][(2-methylpyridin-4-yl)methyl]amino}methyl)-1,4-dihydroquinolin-4-one]: the “hSTING FTS binding assay (ΔT C.°)” value at human STING is listed as “++ (ΔTm>10° C.)”. Also, the 50% effective concentration (EC50) in assay [1] and in assay [2] was not above 1 µM in each case.
As for `COc1cc(CN(Cc2cn(C)c3ccccc3c2=O)C2CCCN(c3cccnn3)C2)ccn1` (stereo not drawn) [Example 3, 3-({[(2-methoxypyridin-4-yl)methyl][1-(pyridazin-3-yl)piperidin-3-yl]amino}methyl)-1-methyl-1,4-dihydroquinolin-4-one], at human STING, the “hSTING FTS binding assay (ΔT C.°)” value was “+ (ΔTm<10° C.)”. In addition, the EC50 in assay [1] and in assay [2] was not below 10 µM each time.
On to `Cc1cc(CN(Cc2cn(C)c3ccccc3c2=O)C2CN(c3cccnc3)CC(F)(F)C2)ccn1` (stereo not drawn) [Example 34, 3-({[5,5-difluoro-1-(pyridin-3-yl)piperidin-3-yl][(2-methylpyridin-4-yl)methyl]amino}methyl)-1-methyl-1,4-dihydroquinolin-4-one], for which, at human STING, the “hSTING FTS binding assay (ΔT C.°)” value is on record as “+ (ΔTm<10° C.)”. For the same compound, the EC50 in assay [1] and in assay [2] was not below 10 µM in each case.
For `Cc1ccc(N2CCC[C@H](N(Cc3ccnc(C)c3)Cc3cn(C4CC4)c4cc(N5CCNCC5)c(F)cc4c3=O)C2)cn1` [Example 47, 1-cyclopropyl-6-fluoro-3-({[(3S)-1-(6-methylpyridin-3-yl)piperidin-3-yl][(2-methylpyridin-4-yl)methyl]amino}methyl)-7-(piperazin-1-yl)-1,4-dihydroquinolin-4-one], the “hSTING FTS binding assay (ΔT C.°)” value on human STING is on record as “++ (ΔTm>10° C.)”. Further, the EC50 in assay [1] and in assay [2] was not above 1 µM throughout.
Take `Cc1ccc(N2CCC[C@H](N(Cc3ccnc(C)c3)Cc3cn(C4CC4)c4nc(Cl)c(F)cc4c3=O)C2)cn1` [Example 42, 7-chloro-1-cyclopropyl-6-fluoro-3-({[(3S)-1-(6-methylpyridin-3-yl)piperidin-3-yl][(2-methylpyridin-4-yl)methyl]amino}methyl)-1,4-dihydro-1,8-naphthyridin-4-one]: on human STING, the “hSTING FTS binding assay (ΔT C.°)” value was “++ (ΔTm>10° C.)”. For the same compound, the EC50 in assay [1] and in assay [2] was not above 1 µM in each case.
Turning to `Cc1cc(CN(Cc2cn(C)c3ccccc3c2=O)[C@H]2CCCN(c3cc(=O)[nH]cn3)C2)ccn1` [Example 22, 1-methyl-3-({[(2-methylpyridin-4-yl)methyl][(3S)-1-(6-oxo-1,6-dihydropyrimidin-4-yl)piperidin-3-yl]amino}methyl)-1,4-dihydroquinolin-4-one], on human STING, the “hSTING FTS binding assay (ΔT C.°)” value was “++ (ΔTm>10° C.)”. Moreover, the EC50 in assay [1] and in assay [2] was not below 10 µM each time.
`Cc1ccc(N2CCC[C@H](N(Cc3ccnc(C)c3)Cc3c[nH]c4ccccc4c3=O)C2)cn1` [Example 58, 3-({[(3S)-1-(6-methylpyridin-3-yl)piperidin-3-yl][(2-methylpyridin-4-yl)methyl]amino}methyl)-1,4-dihydroquinolin-4-one]: the “hSTING FTS binding assay (ΔT C.°)” value on human STING is on record as “++ (ΔTm>10° C.)”. Besides, the concentration for a half-maximal effect (EC50) in assay [1] and in assay [2] was not above 1 µM each time.
As to `COc1cc(CN(Cc2cn(C)c3ccccc3c2=O)C2CCCN(c3cnccn3)C2)ccn1` (stereo not drawn) [Example 4, 3-({[(2-methoxypyridin-4-yl)methyl][1-(pyrazin-2-yl)piperidin-3-yl]amino}methyl)-1-methyl-1,4-dihydroquinolin-4-one], on human STING, the “hSTING FTS binding assay (ΔT C.°)” value is “+ (ΔTm<10° C.)”. Moreover, the half-maximal effective concentration (EC50) in assay [1] and in assay [2] was 1 to 10 µM throughout.
Consider `Cc1cc(CN(Cc2cn(C)c3ccccc3c2=O)[C@H]2C[C@@H](C)CN(c3cccnc3)C2)ccn1` [Example 27, 1-methyl-3-({[(3S,5R)-5-methyl-1-(pyridin-3-yl)piperidin-3-yl][(2-methylpyridin-4-yl)methyl]amino}methyl)-1,4-dihydroquinolin-4-one], for which the “hSTING FTS binding assay (ΔT C.°)” value on human STING is reported as “+ (ΔTm<10° C.)”. Besides, the EC50 in assay [1] and in assay [2] was not below 10 µM throughout.
With `Cc1cc(CN(Cc2c[nH]c3ccccc3c2=O)[C@H]2CCCN(c3cccnc3)C2)ccn1` [Example 35, 3-({[(2-methylpyridin-4-yl)methyl][(3S)-1-(pyridin-3-yl)piperidin-3-yl]amino}methyl)-1,4-dihydroquinolin-4-one], the “hSTING FTS binding assay (ΔT C.°)” value on human STING was “++ (ΔTm>10° C.)”. For the same compound, the results for the EC50 in assay [1] and in assay [2] were not above 1 µM and 1 to 10 µM, respectively.
The matching figures for `Cc1cc(CN(Cc2cn(C)c3ccccc3c2=O)[C@H]2CCCN(c3cccnc3[N+](=O)[O-])C2)ccn1` [Example 36, 1-methyl-3-({[(2-methylpyridin-4-yl)methyl][(3S)-1-(2-nitropyridin-3-yl)piperidin-3-yl]amino}methyl)-1,4-dihydroquinolin-4-one]: “+ (ΔTm<10° C.)”, not below 10 µM and not below 10 µM.
For `Cc1ccc(N2CCC[C@H](N(Cc3ccnc(C)c3)Cc3cn(C4COC4)c4ccccc4c3=O)C2)cn1` [Example 50, 3-({[(3S)-1-(6-methylpyridin-3-yl)piperidin-3-yl][(2-methylpyridin-4-yl)methyl]amino}methyl)-1-(oxetan-3-yl)-1,4-dihydroquinolin-4-one] the same measures were “++ (ΔTm>10° C.)”, not above 1 µM and not above 1 µM.
For `Cc1cc(CN(Cc2cn(C)c3ccccc3c2=O)[C@H]2CCCN(c3cccnc3)C2)cc(C)n1` [Example 38, 3-({[(2,6-dimethylpyridin-4-yl)methyl][(3S)-1-(pyridine-3-yl)piperidin-3-yl]amino}methyl)-1-methyl-1,4-dihydroquinolin-4-one] the same measures were “+ (ΔTm<10° C.)”, not below 10 µM and not below 10 µM.
With `Cc1cc(CN(Cc2cn(C)c3ccccc3c2=O)[C@H]2CCCN(c3ccc([N+](=O)[O-])nc3)C2)ccn1` [Example 14, 1-methyl-3-({[(2-methylpyridin-4-yl)methyl][(3S)-1-(6-nitropyridin-3-yl)piperidin-3-yl]amino}methyl)-1,4-dihydroquinolin-4-one], the “hSTING FTS binding assay (ΔT C.°)” value at human STING is “+ (ΔTm<10° C.)”. The half-maximal effective concentration (EC50) in assay [1] is 1 to 10 µM; in assay [2] it was not below 10 µM.
The matching figures for `Cc1ccc(N2CCC[C@H](N(Cc3ccnc(C)c3)Cc3cn(C4CC4)c4cc(Cl)ncc4c3=O)C2)cn1` [Example 56, 7-chloro-1-cyclopropyl-3-({[(3S)-1-(6-methylpyridin-3-yl)piperidin-3-yl][(2-methylpyridin-4-yl)methyl]amino}methyl)-1,4-dihydro-1,6-naphthyridin-4-one]: “+ (ΔTm<10° C.)”, not above 1 µM and 1 to 10 µM.
For `Cc1cc(CN(Cc2cn(C)c3ccccc3c2=O)C2CCCN(c3cccnc3)C2)ccn1` (stereo not drawn) [Example 2, 1-methyl-3-({[(2-methylpyridin-4-yl)methyl][1-(pyridin-3-yl)piperidin-3-yl]amino}methyl)-1,4-dihydroquinolin-4-one] the same measures were “++ (ΔTm>10° C.)”, not above 1 µM and not above 1 µM.

The values above are taken from US12344606B2, “Next-generation modulators of stimulator of interferon genes (STING)” (RYVU THERAPEUTICS S.A., priority 2019, dated 2025).
